pEC50: −log10 of the molar value.
What was measured:
[1] = test system: recombinant NL4-3 virus; test: HIV cell culture assay (antiviral activity, luciferase readout in MT-2 cells); assay type: cell-based; details: Human immunodeficiency virus 1, NL43, MT2
Experimental: HIV cell culture assay—MT-2 cells, 293T cells and the proviral DNA clone of NL4-3 virus were obtained from the […] AIDS Research and Reference Reagent Program. MT-2 cells were propagated in RPMI 1640 media supplemented with 10% heat inactivated fetal bovine serum (FBS), […] penicillin G and up to 100 units/mL streptomycin. The 293T cells were propagated in DMEM media supplemented with 10% heat inactivated FBS, […] penicillin G and […] streptomycin. A recombinant NL4-3 proviral clone, in which a section of the nef gene was replaced with the Renilla luciferase gene, was used to make the reference virus used in these studies. The recombinant virus was prepared through transfection of the recombinant NL4-3 proviral clone into 293T cells using Transit-293 Transfection Reagent from Mirus Bio LLC (Madison, Wis.). Supernatent was harvested after 2-3 days and the amount of virus present was titered in MT-2 cells using luciferase enzyme activity as a marker by measuring luciferase enzyme activity. Luciferase was quantitated using the EnduRen Live Cell Substrate from Promega (Madison, Wis.). Antiviral activities of compounds toward the recombinant virus were quantified by measuring luciferase activity in MT-2 cells infected for 4-5 days with the recombinant virus in the presence of serial dilutions of the compound.
The 50% effective concentration (EC50) was calculated by using the exponential form of the median effect equation where (Fa)=1/[1+(ED50/drug conc.)m] (Johnson V A, Byington R T. Infectivity Assay. In Techniques in HIV Research. ed. Aldovini A, Walker B D. 71-76. New York: Stockton Press. 1990). The 50% inhibitory concentration (EC50) was calculated by using the exponential form of the median effect equation where percent inhibition=1/[1+(EC50/drug concentration)m], where m is a parameter that reflects the slope of the concentration-response curve.

[2] = Compound cytotoxicity, XTT-based colorimetric assay; assay type: cell-based; details: human; uninfected MT2 cells, day 4, XTT; read-out: CC50
Experimental: Compound cytotoxicity and the corresponding CC50 values were determined using the same protocol as described in the antiviral assay except that uninfected cells were used. Cytotoxicity was assessed on day 4 in uninfected MT2 cells by using a XTT (2,3-bis[2-Methoxy-4-nitro-5-sulfophenyl]-2H-tetrazolium-5-carboxyanilide inner salt)-based colorimetric assay (Sigma-Aldrich, St Louis, Mo.).

SMILES	pEC50 [1]	CC50 at 4 days [2] [nM]
C[C@@H]1CN(c2ccc3c(=O)n(-c4ccc(Cl)c5c(NS(C)(=O)=O)nn(CC(F)F)c45)c([C@H](Cc4cc(F)cc(F)c4)NC(=O)Cn4nc(C5CC5)cc4C(F)F)nc3c2)C[C@H](C)O1 (atropisomer, axis not shown; (P)) [Example 47, N—((S)-1-((3P)-3-(4-chloro-1-(2,2-difluoroethyl)-3-(methylsulfonamido)-1H-indazol-7-yl)-7-((2S,6R)-2,6-dimethylmorpholino)-4-oxo-3,4-dihydroquinazolin-2-yl)-2-(3,5-difluorophenyl)ethyl)-2-(3-cyclopropyl-5-(difluoromethyl)-1H-pyrazol-1-yl)acetamide]	9.02	> 500
C[C@@H]1CN(c2ccc3c(=O)n(-c4ccc(Cl)c5c(NS(=O)(=O)C6CC6)nn(CC(F)F)c45)c([C@H](Cc4cc(F)cc(F)c4)NC(=O)Cn4nc(C(F)F)c5c4C(F)(F)[C@@H]4C[C@H]54)nc3c2)C[C@H](C)O1 (atropisomer, axis not shown; (P)) [Example 10, N—((S)-1-((3P)-3-(4-chloro-3-(cyclopropanesulfonamido)-1-(2,2-difluoroethyl)-1H-indazol-7-yl)-7-((2S,6R)-2,6-dimethylmorpholino)-4-oxo-3,4-dihydroquinazolin-2-yl)-2-(3,5-difluorophenyl)ethyl)-2-((3bS,4aR)-3-(difluoromethyl)-5,5-difluoro-3b,4,4a,5-tetrahydro-1H-cyclopropa[3,4]cyclopenta[1,2-c]pyrazol-1-yl)acetamide]	10.14	> 500
Cn1nc(NS(C)(=O)=O)c2c(Cl)ccc(-n3c([C@H](Cc4cc(F)cc(F)c4)NC(=O)Cn4nc(C(F)F)c5c4C(F)(F)[C@@H]4C[C@H]54)nc4cc(N5CC6CCC(C5)O6)ccc4c3=O)c21 [Example 27, N—((S)-1-(7-((1R,5S)-8-oxa-3-azabicyclo[3.2.1]octan-3-yl)-(3P)-3-(4-chloro-1-methyl-3-(methylsulfonamido)-1H-indazol-7-yl)-4-oxo-3,4-dihydroquinazolin-2-yl)-2-(3,5-difluorophenyl)ethyl)-2-((3bS,4aR)-3-(difluoromethyl)-5,5-difluoro-3b,4,4a,5-tetrahydro-1H-cyclopropa[3,4]cyclopenta[1,2-c]pyrazol-1-yl)acetamide]	10.29	> 500
Cn1nc(NS(C)(=O)=O)c2c(Cl)ccc(-n3c([C@H](Cc4cc(F)cc(F)c4)NC(=O)Cn4nc(C(F)F)c5c4C(F)(F)[C@@H]4C[C@H]54)nc4cc(N5CCCCC5)ccc4c3=O)c21 (atropisomer, axis not shown; (P)) [Example 14, N—((S)-1-((3P)-3-(4-chloro-1-methyl-3-(methylsulfonamido)-1H-indazol-7-yl)-4-oxo-7-(piperidin-1-yl)-3,4-dihydroquinazolin-2-yl)-2-(3,5-difluorophenyl)ethyl)-2-((3bS,4aR)-3-(difluoromethyl)-5,5-difluoro-3b,4,4a,5-tetrahydro-1H-cyclopropa[3,4]cyclopenta[1,2-c]pyrazol-1-yl)acetamide]	9.62	> 1000
C[C@@H]1CN(c2ccc3c(=O)n(-c4ccc(Cl)c5c(NS(C)(=O)=O)nn(CC(F)F)c45)c([C@H](Cc4cc(F)cc(F)c4)NC(=O)Cn4ccc(C5CCC5)n4)nc3c2)C[C@H](C)O1 (atropisomer, axis not shown; (P)) [Example 50, N—((S)-1-((3P)-3-(4-chloro-1-(2,2-difluoroethyl)-3-(methylsulfonamido)-1H-indazol-7-yl)-7-((2S,6R)-2,6-dimethylmorpholino)-4-oxo-3,4-dihydroquinazolin-2-yl)-2-(3,5-difluorophenyl)ethyl)-2-(3-cyclobutyl-1H-pyrazol-1-yl)acetamide]	9.04	> 500
COC[C@@H]1CCCN1c1ccc2c(=O)n(-c3ccc(Cl)c4c(NS(C)(=O)=O)nn(C)c34)c([C@H](Cc3cc(F)cc(F)c3)NC(=O)Cn3nc(C(F)F)c4c3C(F)(F)[C@@H]3C[C@H]43)nc2c1 (atropisomer, axis not shown; (P)) [Example 3, N—((S)-1-((3P)-3-(4-chloro-1-methyl-3-(methylsulfonamido)-1H-indazol-7-yl)-7-((S)-2-(methoxymethyl)pyrrolidin-1-yl)-4-oxo-3,4-dihydroquinazolin-2-yl)-2-(3,5-difluorophenyl)ethyl)-2-((3bS,4aR)-3-(difluoromethyl)-5,5-difluoro-3b,4,4a,5-tetrahydro-1H-cyclopropa[3,4]cyclopenta[1,2-c]pyrazol-1-yl)acetamide]	9.76	> 500
Cn1nc(NS(C)(=O)=O)c2c(Cl)ccc(-n3c([C@H](Cc4cc(F)cc(F)c4)NC(=O)Cn4nc(C(F)F)c5c4C(F)(F)[C@@H]4C[C@H]54)nc4cc(NCC(F)F)ccc4c3=O)c21 (atropisomer, axis not shown; (P)) [Example 41, N—((S)-1-((3P)-3-(4-chloro-1-methyl-3-(methylsulfonamido)-1H-indazol-7-yl)-7-((2,2-difluoroethyl)amino)-4-oxo-3,4-dihydroquinazolin-2-yl)-2-(3,5-difluorophenyl)ethyl)-2-((3bS,4aR)-3-(difluoromethyl)-5,5-difluoro-3b,4,4a,5-tetrahydro-1H-cyclopropa[3,4]cyclopenta[1,2-c]pyrazol-1-yl)acetamide]	9.76	> 1000
C[C@@H]1CN(c2ccc3c(=O)n(-c4ccc(Cl)c5c(NS(C)(=O)=O)nn(C)c45)c([C@H](Cc4cc(F)cc(F)c4)NC(=O)Cn4nc(C(F)F)c5c4C(F)(F)[C@@H]4C[C@H]54)nc3c2)C[C@H](C)O1 (atropisomer, axis not shown; (P)) [Example 15, N—((S)-1-((3P)-3-(4-chloro-1-methyl-3-(methylsulfonamido)-1H-indazol-7-yl)-7-((2S,6R)-2,6-dimethylmorpholino)-4-oxo-3,4-dihydroquinazolin-2-yl)-2-(3,5-difluorophenyl)ethyl)-2-((3bS,4aR)-3-(difluoromethyl)-5,5-difluoro-3b,4,4a,5-tetrahydro-1H-cyclopropa[3,4]cyclopenta[1,2-c]pyrazol-1-yl)acetamide]	10.46	> 10000
Cn1nc(NS(C)(=O)=O)c2c(Cl)ccc(-n3c([C@H](Cc4cc(F)cc(F)c4)NC(=O)Cn4nc(C(F)F)c5c4C(F)(F)[C@@H]4C[C@H]54)nc4cc(N5CCCC5)ccc4c3=O)c21 (atropisomer, axis not shown; (P)) [Example 19, N—((S)-1-((3P)-3-(4-chloro-1-methyl-3-(methylsulfonamido)-1H-indazol-7-yl)-4-oxo-7-(pyrrolidin-1-yl)-3,4-dihydroquinazolin-2-yl)-2-(3,5-difluorophenyl)ethyl)-2-((3bS,4aR)-3-(difluoromethyl)-5,5-difluoro-3b,4,4a,5-tetrahydro-1H-cyclopropa[3,4]cyclopenta[1,2-c]pyrazol-1-yl)acetamide]	9.65	> 1000
Cn1nc(NS(C)(=O)=O)c2c(Cl)ccc(-n3c([C@H](Cc4cc(F)cc(F)c4)NC(=O)Cn4nc(C(F)F)c5c4C(F)(F)[C@@H]4C[C@H]54)nc4cc(N5CCC6(CCC6)CC5)ccc4c3=O)c21 (atropisomer, axis not shown; (P)) [Example 34, N—((S)-1-((3P)-3-(4-chloro-1-methyl-3-(methylsulfonamido)-1H-indazol-7-yl)-4-oxo-7-(7-azaspiro[3.5]nonan-7-yl)-3,4-dihydroquinazolin-2-yl)-2-(3,5-difluorophenyl)ethyl)-2-((3bS,4aR)-3-(difluoromethyl)-5,5-difluoro-3b,4,4a,5-tetrahydro-1H-cyclopropa[3,4]cyclopenta[1,2-c]pyrazol-1-yl)acetamide]	8.55	> 1000
Cn1nc(NS(C)(=O)=O)c2c(Cl)ccc(-n3c([C@H](Cc4cc(F)cc(F)c4)NC(=O)Cn4nc(C(F)F)c5c4C(F)(F)[C@@H]4C[C@H]54)nc4cc(N5CCC(O)CC5)ccc4c3=O)c21 (atropisomer, axis not shown; (P)) [Example 24, N—((S)-1-((3P)-3-(4-chloro-1-methyl-3-(methylsulfonamido)-1H-indazol-7-yl)-7-(4-hydroxypiperidin-1-yl)-4-oxo-3,4-dihydroquinazolin-2-yl)-2-(3,5-difluorophenyl)ethyl)-2-((3bS,4aR)-3-(difluoromethyl)-5,5-difluoro-3b,4,4a,5-tetrahydro-1H-cyclopropa[3,4]cyclopenta[1,2-c]pyrazol-1-yl)acetamide]	9.93	> 500
